The results in this text go back to ChEMBL document CHEMBL1123709, “Affinity labels for beta-adrenoceptors: preparation and properties of alkylating beta-blockers derived from indole” (J Med Chem, 1987).

SMILES strings stand for the structures.

Experiment [1] concerns the target T1, Adrenergic receptor beta (Rattus norvegicus, UniProt P18090+P10608+P26255). The experiment can be described thus: Binding affinity against the [3H]dihydroalprenolol binding sites on beta adrenergic receptor of rat heart reticulocytes pretreated with alkylating beta-blockers.
Experiment [2] deals with T1, Adrenergic receptor beta. The experiment can be described thus: Binding affinity against beta adrenergic receptor from rat heart tissues was determined. It is filed as protein assay.
Experiment [3] concerns the target T1, Adrenergic receptor beta. The experiment in a line: Binding affinity against beta adrenergic receptor from rat lung tissues was determined. It is filed as protein assay.
In experiment [4] the target is T1, Adrenergic receptor beta. The experiment in a line: Binding affinity against the [3H]dihydroalprenolol binding to beta adrenergic receptor of rat lung reticulocytes pretreated with alkylating beta-blockers.
Experiment [5] addresses T1, Adrenergic receptor beta. The experiment in a line: Binding affinity against the [3H]dihydroalprenolol binding to beta adrenergic receptor of rat heart reticulocytes pretreated with alkylating beta-blockers.
In experiment [6] the target is T2, Adrenergic receptor beta (Rattus norvegicus) (UniProt P18090+P10608+P26255). The experiment can be described thus: Concentration of binding sites of protein for [3H]dihydroalprenolol binding sites on beta adrenergic receptor of rat heart reticulocytes was determined.
In experiment [7] the target is T2, Adrenergic receptor beta (Rattus norvegicus). The experiment can be described thus: Percent potency for irreversible blockade of the [3H]dihydroalprenolol binding to beta adrenergic receptor of rat heart reticulocytes pretreated with alkylating beta blockers at concentration of 1 x 10e-6 M.
Experiment [8] shares this target. The experiment in a line: Percent potency for irreversible blockade of the [3H]dihydroalprenolol binding to beta adrenergic receptor of rat heart reticulocytes pretreated with alkylating beta blockers at concentration of 1 x 10e-7 M.

For the compound `CC1(NC(=O)CBr)CCC(C(C)(C)NCC(O)COc2cccc3[nH]ccc23)CC1` (stereo unspecified), the Kd on Adrenergic receptor beta [1] was found to be 2 nM; on Adrenergic receptor beta [4], 1.4 nM. Besides, the Ki at Adrenergic receptor beta [2] is 22.6 nM; on Adrenergic receptor beta [3], 4.46 nM.

For `CC1(NCC(O)COc2cccc3[nH]ccc23)CCC(C(C)(C)NC(=O)CBr)CC1` (stereo unspecified), the Ki on Adrenergic receptor beta [2] is 0.46 nM; on Adrenergic receptor beta [3], 1.34 nM.

Turning to `CC1(NC(=O)CBr)CCC(C(C)(C)NCC(O)COc2cccc3[nH]c(C#N)cc23)CC1` (stereo unspecified), the Kd is given as 1.6 nM at Adrenergic receptor beta [5] and 1.2 nM on Adrenergic receptor beta [4]. Also, the values for the Ki at Adrenergic receptor beta [2] and at Adrenergic receptor beta [3] were 1.83 nM and 2.78 nM, respectively.

Take `C=CCc1ccccc1OCC(O)CNC1(C)CCC(C(C)(C)NC(=O)CBr)CC1` (stereo unspecified) [BROMOACETYL ALPRENOLOL MENTHANE]: the figures for the Ki on Adrenergic receptor beta [2] and at Adrenergic receptor beta [3] were 391 nM and 126 nM, respectively.

Regarding `CC1(NCC(O)COc2cccc3[nH]c(C#N)cc23)CCC(C(C)(C)NC(=O)CBr)CC1` (stereo unspecified), the Bmax (fM (mg of protein)-1) in experiment [6] was 11. Besides, the equilibrium dissociation constant (Kd) at Adrenergic receptor beta [5] is 1.6 nM; on Adrenergic receptor beta [4] it was 1 nM. Besides, the Blockade in experiment [7] stood at 95%; in experiment [8], 89%. Further, the figures for the Ki on Adrenergic receptor beta [2] and at Adrenergic receptor beta [3] were 0.61 nM and 1.49 nM, respectively.

`C=CCc1ccccc1OCC(O)CNC(C)(C)C1CCC(C)(NC(=O)CBr)CC1` (stereo unspecified): the figures for the Ki at Adrenergic receptor beta [2] and on Adrenergic receptor beta [3] were 31.2 nM and 19.8 nM, respectively.
